Results published in publication PMC4406453, “A highly conserved, inhibitable astacin metalloprotease from Teladorsagia circumcincta is required for cuticle formation and nematode development^” (International Journal for Parasitology, 2015).

Target: T1, recombinant T. circumcincta DPY-31 (Tc rDPY-31) (Teladorsagia circumcincta, UniProt A0A0C5PRQ1)
T1 construct: catalytic astacin domain only (684 bp codon-optimised synthetic gene), His-tagged, pET-28a(+) NdeI/XhoI, E. coli BL21 (DE3), Ni-NTA, 23 kDa; full-length precursor 614 residues
T1 sequence (A0A0C5PRQ1 151-378 limits assumed): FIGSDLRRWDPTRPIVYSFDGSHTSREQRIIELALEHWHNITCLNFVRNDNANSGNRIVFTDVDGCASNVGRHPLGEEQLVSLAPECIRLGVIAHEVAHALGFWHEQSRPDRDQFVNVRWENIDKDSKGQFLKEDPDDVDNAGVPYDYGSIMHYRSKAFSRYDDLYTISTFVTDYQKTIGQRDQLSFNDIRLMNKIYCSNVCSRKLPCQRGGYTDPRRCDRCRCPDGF
Assay: chromogenic protease assay, Suc-Ala-Ala-Ala-pNA, […] nm
Assay type: biochemical
Details: read-out: Effective concentration against T. circumcincta rDPY-31 ^d

CCCCC[C@H](CC(=O)NO)C(=O)N[C@H](C(=O)N1CCC[C@H]1CO)C(C)C [Actinonin]
IC50: 50 µM
